Measurements published in ChEMBL document CHEMBL4842376, “Design, synthesis and biological evaluation of novel hybrids targeting mTOR and HDACs for potential treatment of hepatocellular carcinoma” (Eur J Med Chem, 2021).
Activity calls are given as the source filed them. The calls are words filed in the database; no cut-off is given here.

How the values were obtained:
[1] = test system: HepG2; assay: Antiproliferative activity against human HepG2 cells assessed as inhibition of cell growth measured after 72 hrs by MTT assay; format: functional, cell-based; conditions: HepG2, 72 h
[2] = test system: CNE-2; assay: cells; format: functional, cell-based; conditions: Homo sapiens, CNE-2, 72 h
Description: Antiproliferative activity against human CNE-2 cells assessed as inhibition of cell growth measured after 72 hrs by MTT assay

[3] = test system: SNU-423; assay: Antiproliferative activity against human SNU-423 cells assessed as inhibition of cell growth measured after 72 hrs by MTT assay; format: functional, cell-based; conditions: SNU-423, 72 h
[4] = test system: Bel-7402; assay: Antiproliferative activity against human Bel-7402 cells assessed as inhibition of cell growth measured after 72 hrs by MTT assay; format: functional, cell-based; conditions: Bel-7402, 72 h
[5] = target: T1, Serine/threonine-protein kinase mTOR (Homo sapiens, UniProt P42345); assay: Inhibition of mTOR (unknown origin) at 1 uM using U-Light-4E-BP1 peptide as a substrate in the presence of ATP incubated for 30 mins by Lance ultra assay relative to control
[6] = target: Histone deacetylase 1 (Homo sapiens, UniProt Q13547); assay: Inhibition of HDAC1 (unknown origin) using Ac-peptide as a substrate pretreated for 15 mins followed by substrate addition
Chain of Histone deacetylase 1 (Q13547 whole entry): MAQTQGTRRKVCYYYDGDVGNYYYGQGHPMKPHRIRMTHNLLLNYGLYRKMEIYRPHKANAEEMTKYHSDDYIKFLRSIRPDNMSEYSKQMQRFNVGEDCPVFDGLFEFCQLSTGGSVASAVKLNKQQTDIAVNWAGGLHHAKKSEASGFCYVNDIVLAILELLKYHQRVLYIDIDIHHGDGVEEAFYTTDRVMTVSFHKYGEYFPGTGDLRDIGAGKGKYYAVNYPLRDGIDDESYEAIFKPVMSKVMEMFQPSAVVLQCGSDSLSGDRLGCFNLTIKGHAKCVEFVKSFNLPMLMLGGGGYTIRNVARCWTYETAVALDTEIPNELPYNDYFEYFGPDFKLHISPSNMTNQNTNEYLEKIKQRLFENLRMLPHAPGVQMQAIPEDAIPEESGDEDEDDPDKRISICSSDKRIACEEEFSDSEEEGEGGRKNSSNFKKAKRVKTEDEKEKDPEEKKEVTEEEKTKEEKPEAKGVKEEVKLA

[7] = target: Histone deacetylase 2 (Homo sapiens, UniProt Q92769)
Chain of Histone deacetylase 2 (Q92769 whole entry): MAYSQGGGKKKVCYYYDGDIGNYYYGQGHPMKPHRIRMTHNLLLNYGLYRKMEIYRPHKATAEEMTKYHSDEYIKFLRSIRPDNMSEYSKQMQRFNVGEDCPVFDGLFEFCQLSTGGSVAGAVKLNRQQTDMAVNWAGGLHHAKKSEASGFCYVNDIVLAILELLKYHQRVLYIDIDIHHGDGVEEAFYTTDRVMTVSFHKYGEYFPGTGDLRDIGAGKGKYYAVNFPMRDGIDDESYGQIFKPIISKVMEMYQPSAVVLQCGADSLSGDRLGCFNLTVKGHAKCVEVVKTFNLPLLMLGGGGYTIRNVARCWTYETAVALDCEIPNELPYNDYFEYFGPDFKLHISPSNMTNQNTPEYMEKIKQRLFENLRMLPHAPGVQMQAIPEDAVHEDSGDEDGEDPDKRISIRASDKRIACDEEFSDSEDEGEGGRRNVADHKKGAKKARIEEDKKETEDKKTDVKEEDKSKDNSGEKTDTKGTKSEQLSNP

[8] = target: Histone deacetylase 3 (Homo sapiens, UniProt O15379); assay: Inhibition of HDAC3 (unknown origin) using Ac-peptide as a substrate pretreated for 15 mins followed by substrate addition
Chain of Histone deacetylase 3 (O15379 whole entry): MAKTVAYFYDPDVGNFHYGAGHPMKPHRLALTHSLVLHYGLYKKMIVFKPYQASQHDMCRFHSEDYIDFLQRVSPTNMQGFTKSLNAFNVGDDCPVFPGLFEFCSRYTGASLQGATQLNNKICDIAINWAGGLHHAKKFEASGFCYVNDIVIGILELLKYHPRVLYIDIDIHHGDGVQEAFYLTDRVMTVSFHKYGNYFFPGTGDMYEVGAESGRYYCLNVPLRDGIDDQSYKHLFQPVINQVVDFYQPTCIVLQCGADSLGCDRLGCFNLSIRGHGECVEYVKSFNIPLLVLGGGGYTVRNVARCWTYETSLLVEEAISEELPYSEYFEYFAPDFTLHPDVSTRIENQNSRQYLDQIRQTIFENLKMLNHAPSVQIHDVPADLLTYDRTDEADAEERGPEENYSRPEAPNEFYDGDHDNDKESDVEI

[9] = target: T2, Histone deacetylase 8 (Homo sapiens, UniProt Q9BY41); assay: Inhibition of HDAC8 (unknown origin) using Ac-peptide as a substrate pretreated for 15 mins followed by substrate addition
T2 sequence (Q9BY41 whole entry): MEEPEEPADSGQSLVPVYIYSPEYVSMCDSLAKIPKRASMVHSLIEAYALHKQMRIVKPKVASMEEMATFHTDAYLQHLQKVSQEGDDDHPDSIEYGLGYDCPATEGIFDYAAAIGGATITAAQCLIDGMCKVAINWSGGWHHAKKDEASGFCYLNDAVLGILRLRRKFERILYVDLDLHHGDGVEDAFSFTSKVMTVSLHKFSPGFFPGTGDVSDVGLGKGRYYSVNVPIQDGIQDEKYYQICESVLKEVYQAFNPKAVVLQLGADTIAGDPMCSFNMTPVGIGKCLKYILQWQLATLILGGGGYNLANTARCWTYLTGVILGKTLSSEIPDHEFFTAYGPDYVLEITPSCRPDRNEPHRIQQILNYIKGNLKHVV

[10] = test system: L02; assay: cells; format: ADME, cell-based; conditions: Homo sapiens, L02, 72 h
Description: Cytotoxicity against human L02 cells assessed as reduction in cell viability measured after 72 hrs by MTT assay

[11] = target: T1, Serine/threonine-protein kinase mTOR; assay: Inhibition of mTOR in human HepG2 cells assessed as reduction in phosphorylation of p70S6K measured after 24 hrs by western blot analysis; format: cell-based; conditions: dose 1.5-6 µM
[12] = target: T1, Serine/threonine-protein kinase mTOR; assay: Inhibition of mTOR in human HepG2 cells assessed as reduction in phosphorylation of 4EBP1 measured after 24 hrs by western blot analysis; format: cell-based; conditions: dose 1.5-6 µM
[13] = target: T3, Histone deacetylase (Homo sapiens) (UniProt Q13547+O15379+Q9UBN7+Q92769+Q9UQL6+Q8WUI4+Q9BY41+Q96DB2+P56524+Q9UKV0+Q969S8); assay: Inhibition of HDAC in human HepG2 cells assessed as upregulation of histone H3 acetylation at 6 uM measured after 24 hrs by western blot analysis; format: cell-based
[14] = target: T3, Histone deacetylase (Homo sapiens); assay: Inhibition of HDAC in human HepG2 cells assessed as upregulation of alpha-tubulin acetylation at 6 uM measured after 24 hrs by western blot analysis; format: cell-based
[15] = test system: HepG2; assay: Induction of cell cycle arrest in human HepG2 cells assessed as accumulation of cells in S phase at 1.5 uM measured after 24 hrs by propidium iodide staining based flow cytometry analysis (Rvb= 17 to 26.4%); format: functional
[16] = test system: HepG2; assay: Induction of cell cycle arrest in human HepG2 cells assessed as accumulation of cells in S phase at 3 uM measured after 24 hrs by propidium iodide staining based flow cytometry analysis (reference value: 17 to 26.4%); format: functional
[17] = test system: HepG2; assay: Induction of cell cycle arrest in human HepG2 cells assessed as accumulation of cells in G0/G1 phase at 6 uM measured after 24 hrs by propidium iodide staining based flow cytometry analysis (reference value: 52.7 to 63.2%); format: functional
[18] = test system: HepG2; assay: Induction of cell cycle arrest in human HepG2 cells assessed as accumulation of cells in S phase at 6 uM measured after 24 hrs by propidium iodide staining based flow cytometry analysis (reference value: 17 to 26.4%); format: functional
[19] = test system: HepG2; assay: Induction of cell cycle arrest in human HepG2 cells assessed as accumulation of cells in G2/M phase at 6 uM measured after 24 hrs by propidium iodide staining based flow cytometry analysis (Rvb= 17.8 to 18.5%); format: functional
[20] = test system: HepG2; assay: Induction of apoptosis in human HepG2 cells assessed as early apoptotic cells at 2.5 uM measured after 24 hrs by Annexin V-FITC/PI staining based flow cytometry analysis (Rvb= 6.15%); format: functional
[21] = test system: HepG2; assay: Induction of apoptosis in human HepG2 cells assessed as late apoptotic cells at 2.5 uM measured after 24 hrs by Annexin V-FITC/PI staining based flow cytometry analysis (Rvb= […]); format: functional
[22] = test system: HepG2; assay: Induction of apoptosis in human HepG2 cells assessed as late apoptotic cells at 5 uM measured after 24 hrs by Annexin V-FITC/PI staining based flow cytometry analysis (Rvb= […]); format: functional
[23] = test system: HepG2; assay: Induction of apoptosis in human HepG2 cells assessed as necrotic cells at 5 uM measured after 24 hrs by Annexin V-FITC/PI staining based flow cytometry analysis (Rvb= 0.082%); format: functional
[24] = test system: HepG2; assay: Induction of apoptosis in human HepG2 cells assessed as live cells at 10 uM measured after 24 hrs by Annexin V-FITC/PI staining based flow cytometry analysis (Rvb= 84.6%); format: functional
[25] = test system: HepG2; assay: Induction of apoptosis in human HepG2 cells assessed as dead cells at 10 uM measured after 24 hrs by Annexin V-FITC/PI staining based flow cytometry analysis (Rvb= 0.082%); format: functional
[26] = test system: HepG2; assay: Antimigratory activity in human HepG2 cells assessed as reduction in wound closure measured after 24 to 48 hrs by scratch wound healing assay; format: functional, cell-based; conditions: dose 1.5-6 µM, time 24-48 hrs
[27] = in vitro; conditions: human, L02 cells versus HepG2 cells
Description: Selectivity index, ratio of IC50 for cytotoxicity against human L02 cells to IC50 for antiproliferative activity against human HepG2 cells

[28] = target: T1, Serine/threonine-protein kinase mTOR; assay: Activation of mTOR in human HepG2 cells assessed as increase in p70S6K phosphorylation at 1.5 uM measured after 24 hrs by western blot analysis; format: cell-based; conditions: filed as activator
[29] = target: T1, Serine/threonine-protein kinase mTOR; assay: Activation of mTOR in human HepG2 cells assessed as increase in 4EBP1 phosphorylation at 1.5 uM measured after 24 hrs by western blot analysis; format: cell-based; conditions: filed as activator

Compound | IC50 [1] [nM] | IC50 [2] [nM] | IC50 [3] [nM] | IC50 [4] [nM] | inhibition [5] [%] | IC50 [6] [nM] | IC50 [7] [nM] | IC50 [8] [nM] | IC50 [9] [nM] | IC50 [10] [nM] | inhibition [13] | inhibition [14] | Activity [15] [%] | Activity [16] [%] | Activity [17] [%] | Activity [18] [%] | Activity [19] [%] | Activity [20] [%] | Activity [21] [%] | Activity [22] [%] | further results
Nc1nc2cc(-c3nn(CCCCCCC(=O)NO)c4ncnc(N)c34)ccc2o1 | 1610 | 4360 | 6100 | > 50000 | 99 | 3.1 | 3.2 | 4.6 | 231 | 24800 | Active | Active | 16.4 | 15.2 | 73.3 | 7.78 | 15.7 | 28.1 | 8.06 | 14.5 | inhibition [11]: Dose-Dependent Effect; inhibition [12]: Dose-Dependent Effect; Activity [23]: 0.59%; Activity [24]: 42.2%; Activity [25]: 0.26%; Activity [26]: Dose-Dependent Effect; selectivity ratio [27]: 15.4
Nc1ncnc2c1c(-c1cnc3[nH]ccc3c1)nn2CCCCCCCCC(=O)NO | 3050 | 2270 | 7500 | 18900 | 97.7 | 20 | 24 | 34 | 733 | 35100 | Active | Active | 20.2 | 16.2 | 66.6 | 11.5 | 23.5 | 17.4 | 12.3 | 10.4 | Activity [28]: Active; Activity [29]: Active; Activity [23]: 0.15%; Activity [24]: 62%; Activity [25]: 0.56%; Activity [26]: Dose-Dependent Effect; selectivity ratio [27]: 11.5
